Reference: ChEMBL document CHEMBL2440076, “New triarylpyrazoles as broad-spectrum anticancer agents: design, synthesis, and biological evaluation” (Eur J Med Chem, 2013)

What was measured:
RPMI-8226 = test: Growth inhibition of human RPMI8226 cells after 48 hrs by sulforhodamine B assay; type: functional, cell-based; conditions: RPMI-8226, 48 h
SK-MEL-28 = test: Growth inhibition of human SK-MEL-28 cells after 48 hrs by sulforhodamine B assay; type: functional; conditions: SK-MEL-28, 48 h
MDA-MB-435 = test: Growth inhibition of human MDA-MB-435 cells after 48 hrs by sulforhodamine B assay; type: functional, cell-based; conditions: MDA-MB-435, 48 h
UACC-62 = test: Growth inhibition of human UACC62 cells assessed as cell growth at 10 uM after 48 hrs by sulforhodamine B assay; type: functional; conditions: UACC-62, 48 h, read-out: Activity
M14 = test: Growth inhibition of human M14 cells assessed as cell growth at 10 uM after 48 hrs by sulforhodamine B assay; type: functional; conditions: M14, 48 h, read-out: Activity
ACHN = test: Growth inhibition of human ACHN cells assessed as cell growth at 10 uM after 48 hrs by sulforhodamine B assay; type: functional; conditions: read-out: Activity
COLO 205 [1] = test: Growth inhibition of human COLO205 cells assessed as cell growth at 10 uM after 48 hrs by sulforhodamine B assay; type: functional; conditions: COLO 205, 48 h, read-out: Activity
HL-60(TB) = test: Growth inhibition of human HL-60(TB) cells after 48 hrs by sulforhodamine B assay; type: functional; conditions: HL-60, 48 h
MCF7 = test: Growth inhibition of human MCF7 cells assessed as cell growth at 10 uM after 48 hrs by sulforhodamine B assay; type: functional; conditions: MCF7, 48 h, read-out: Activity
MDA-MB-231 [2] = test: Growth inhibition of human MDA-MB-231 cells after 48 hrs by sulforhodamine B assay; type: functional; conditions: MDA-MB-231, 48 h
BT-549 [3] = test: Growth inhibition of human BT549 cells after 48 hrs by sulforhodamine B assay; type: functional; conditions: BT-549, 48 h
NCI-H522 [4] = test: Growth inhibition of human NCI-H522 cells assessed as cell growth at 10 uM after 48 hrs by sulforhodamine B assay; type: functional; conditions: NCI-H522, 48 h, read-out: Activity
OVCAR-8 [5] = test: Growth inhibition of human OVCAR8 cells after 48 hrs by sulforhodamine B assay; type: functional; conditions: OVCAR-8, 48 h
[6] = Growth inhibition of human NCI-ADR-RES cells assessed as cell growth at 10 uM after 48 hrs by sulforhodamine B assay; type: functional; conditions: read-out: Activity
K562 = test: Growth inhibition of human K562 cells assessed as cell growth at 10 uM after 48 hrs by sulforhodamine B assay; type: functional; conditions: K562, 48 h, read-out: Activity
NCI-H522 [7] = test: Growth inhibition of human NCI-H522 cells after 48 hrs by sulforhodamine B assay; type: functional; conditions: NCI-H522, 48 h
CCRF-CEM = test: Growth inhibition of human CCRF-CEM cells after 48 hrs by sulforhodamine B assay; type: functional
HOP-92 = test: Growth inhibition of human HOP92 cells assessed as cell growth at 10 uM after 48 hrs by sulforhodamine B assay; type: functional; conditions: HOP-92, 48 h, read-out: Activity
CAKI-1 [8] = test: Growth inhibition of human CAKI-1 cells assessed as cell growth at 10 uM after 48 hrs by sulforhodamine B assay; type: functional; conditions: CAKI-1, 48 h, read-out: Activity
SF-268 = test: Growth inhibition of human SF268 cells after 48 hrs by sulforhodamine B assay; type: functional; conditions: SF-268, 48 h
SW-620 = test: Growth inhibition of human SW620 cells assessed as cell growth at 10 uM after 48 hrs by sulforhodamine B assay; type: functional; conditions: SW-620, 48 h, read-out: Activity
CAKI-1 [9] = test: Growth inhibition of human CAKI-1 cells after 48 hrs by sulforhodamine B assay; type: functional; conditions: CAKI-1, 48 h
BT-549 [10] = test: Growth inhibition of human BT549 cells assessed as cell growth at 10 uM after 48 hrs by sulforhodamine B assay; type: functional; conditions: BT-549, 48 h, read-out: Activity
UO-31 = test: Growth inhibition of human UO31 cells assessed as cell growth at 10 uM after 48 hrs by sulforhodamine B assay; type: functional; conditions: UO-31, 48 h, read-out: Activity
COLO 205 [11] = test: Growth inhibition of human COLO205 cells after 48 hrs by sulforhodamine B assay; type: functional; conditions: COLO 205, 48 h
OVCAR-5 = test: Growth inhibition of human OVCAR5 cells assessed as cell growth at 10 uM after 48 hrs by sulforhodamine B assay; type: functional; conditions: OVCAR-5, 48 h, read-out: Activity
TK-10 = test: Growth inhibition of human TK10 cells after 48 hrs by sulforhodamine B assay; type: functional; conditions: TK-10, 48 h
OVCAR-8 [12] = test: Growth inhibition of human OVCAR8 cells assessed as cell growth at 10 uM after 48 hrs by sulforhodamine B assay; type: functional; conditions: OVCAR-8, 48 h, read-out: Activity
786-0 = test: Growth inhibition of human 786-0 cells after 48 hrs by sulforhodamine B assay; type: functional; conditions: 786-0, 48 h
NCI-H322M = test: Growth inhibition of human NCI-H322M cells after 48 hrs by sulforhodamine B assay; type: functional
Malme-3M = test: Growth inhibition of human MALME-3M cells after 48 hrs by sulforhodamine B assay; type: functional
[13] = Growth inhibition of human HCC2998 cells assessed as cell growth at 10 uM after 48 hrs by sulforhodamine B assay; type: functional; conditions: HCC 2998, 48 h, read-out: Activity
MDA-MB-231 [14] = test: Growth inhibition of human MDA-MB-231 cells assessed as cell growth at 10 uM after 48 hrs by sulforhodamine B assay; type: functional; conditions: MDA-MB-231, 48 h, read-out: Activity
[15] = Growth inhibition of human Hs 578T cells after 48 hrs by sulforhodamine B assay; type: functional
[16] = read-out: LC50 (the source's name)

COc1cc(-c2nn(-c3cccc(NC(=O)c4cccc(C(F)(F)F)c4)c3)cc2-c2ccncc2)ccc1Cl
GI50 (RPMI-8226): 1.57 µM | IC50 (RPMI-8226): 1.57 µM | TGI (RPMI-8226): 26.6 µM | CC50 (RPMI-8226; [16]): > 50 µM | GI50 (SK-MEL-28): 2.49 µM | LC50 (SK-MEL-28): > 50 µM | TGI (SK-MEL-28): > 50 µM | GI50 (MDA-MB-435): 0.705 µM | IC50 (MDA-MB-435): 0.71 µM | TGI (MDA-MB-435): 1.77 µM | growth at 10 µM (UACC-62): 27.2% | growth at 10 µM (M14): 12.3% | growth at 10 µM (ACHN): 31.6% | growth at 10 µM (COLO 205 [1]): 7.11% | GI50 (HL-60(TB)): 2.02 µM | TGI (HL-60(TB)): > 50 µM | CC50 (HL-60(TB); [16]): > 50 µM | growth at 10 µM (MCF7): 3.58% | GI50 (MDA-MB-231 [2]): 1.24 µM | LC50 (MDA-MB-231 [2]): > 50 µM | TGI (MDA-MB-231 [2]): 9.96 µM | GI50 (BT-549 [3]): 2.87 µM | LC50 (50% lethal concentration) (BT-549 [3]): > 50 µM | TGI (BT-549 [3]): 46.8 µM | growth at 10 µM (NCI-H522 [4]): -42.3% | GI50 (OVCAR-8 [5]): 2 µM | TGI (OVCAR-8 [5]): > 50 µM | CC50 (OVCAR-8 [5]; [16]): > 50 µM | growth at 10 µM [6]: 2.75% | growth at 10 µM (K562): 6.11% | GI50 (NCI-H522 [7]): 1.05 µM | LC50 (concentration killing 50% of cells) (NCI-H522 [7]): > 50 µM | TGI (NCI-H522 [7]): 3.85 µM | GI50 (CCRF-CEM): 1.45 µM | LC50 (CCRF-CEM): > 50 µM | TGI (CCRF-CEM): > 50 µM | growth at 10 µM (HOP-92): -5.59% | growth at 10 µM (CAKI-1 [8]): 44.7% | GI50 (SF-268): 2.13 µM | TGI (SF-268): > 50 µM | CC50 (SF-268; [16]): > 50 µM | growth at 10 µM (SW-620): 36% | GI50 (CAKI-1 [9]): 2.01 µM | TGI (CAKI-1 [9]): > 50 µM | CC50 (CAKI-1 [9]; [16]): > 50 µM | growth at 10 µM (BT-549 [10]): 26% | growth at 10 µM (UO-31): 25.1% | GI50 (COLO 205 [11]): 1.64 µM | LC50 (concentration killing 50% of cells) (COLO 205 [11]): 24.8 µM | TGI (COLO 205 [11]): 5.17 µM | growth at 10 µM (OVCAR-5): 49.4% | GI50 (TK-10): 3.24 µM | TGI (TK-10): > 50 µM | CC50 (TK-10; [16]): > 50 µM | growth at 10 µM (OVCAR-8 [12]): 11.8% | GI50 (786-0): 2.45 µM | TGI (786-0): > 50 µM | CC50 (786-0; [16]): > 50 µM | GI50 (NCI-H322M): 10.8 µM | TGI (NCI-H322M): > 50 µM | CC50 (NCI-H322M; [16]): > 50 µM | GI50 (Malme-3M): 1.99 µM | LC50 (concentration killing 50% of starting cells) (Malme-3M): > 50 µM | TGI (Malme-3M): > 50 µM | growth at 10 µM [13]: 0.91% | growth at 10 µM (MDA-MB-231 [14]): 4.67% | GI50 [15]: 1.07 µM | TGI [15]: > 50 µM | CC50 [15, 16]: > 50 µM
